Measured values: PubChem BioAssay (NCI)
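96-well plates; 48 h exposure; 5 concentrations. Endpoints by linear interpolation between flanking doses. Not reached: highest tested concentration assigned. The concentration for 50% growth inhibition is given as GI50. TGI is the concentration that stops growth completely.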

Columns and labels:
Test in all cases: inhibition of tumour cell growth, NCI panel, 48 h; in the data active means GI50 below about 0.43 µM; inactive means the rest
[1] = test system: BT-549 breast
[2] = test system: OVCAR-3 ovarian
[3] = test system: HOP-62 NSCLC
[4] = test system: U251 CNS
[5] = test system: HS 578T breast
[6] = test system: NCI-H23 lung
[7] = test system: SNB-75 CNS
[8] = test system: SF-295 CNS
[9] = test system: MALME-3M melanoma
[10] = test system: TK-10 renal
[11] = test system: SK-MEL-5 melanoma
[12] = test system: KM12 colon
[13] = test system: HOP-92 NSCLC
[14] = test system: SR leukemia
[15] = test system: M14 melanoma
[16] = test system: RPMI-8226 leukemia
[17] = test system: SNB-19 CNS
[18] = test system: OVCAR-8 ovarian
[19] = test system: IGROV1 ovarian
[20] = test system: A549 NSCLC
[21] = test system: OVCAR-5 ovarian
[22] = test system: UACC-257 melanoma
[23] = test system: NCI-H460 lung
[24] = test system: PC-3 prostate
[25] = test system: EKVX NSCLC
[26] = test system: RXF 393 renal
[27] = test system: SK-MEL-28 melanoma
[28] = test system: NCI/ADR-RES ovarian
[29] = test system: UACC-62 melanoma
[30] = test system: COLO 205 colon
[31] = test system: SF-539 CNS
[32] = test system: HT29 colon
[33] = test system: CAKI-1 renal
[34] = test system: UO-31 renal
[35] = test system: MDA-MB-231 breast
[36] = test system: SF-268 CNS
[37] = test system: SN12C renal
[38] = test system: HCT-116 colon
[39] = test system: MCF7 breast
[40] = test system: OVCAR-4 ovarian
[41] = test system: 786-0 renal
[42] = test system: SK-OV-3 ovarian
[43] = test system: HCC-2998 colon
[44] = test system: SK-MEL-2 melanoma
[45] = test system: LOX IMVI melanoma
[46] = test system: A498 renal
[47] = test system: HCT-15 colon
[48] = test system: NCI-H226 lung
[49] = test system: ACHN renal
[50] = test system: DU-145 prostate
[51] = test system: T-47D breast
[52] = test system: NCI-H522 lung
[53] = test system: CCRF-CEM leukemia
[54] = test system: MOLT-4 leukemia
[55] = test system: SW-620 colon
[56] = test system: MDA-MB-435
[57] = test system: K-562 leukemia

O=C(Nc1cc(-c2ccccc2)[nH]n1)c1ccc(Cl)cc1
90.3 µM: TGI [7]
> 100 µM: TGI [1] | TGI [2] | TGI [3] | TGI [4] | TGI [6] | TGI [8] | TGI [9] | TGI [10] | TGI [11] | TGI [12] | TGI [13] | TGI [14] | TGI [15] | TGI [16] | TGI [17] | TGI [18] | TGI [19] | TGI [20] | TGI [21] | TGI [22] | TGI [23] | TGI [24] | TGI [25] | TGI [26] | TGI [27] | TGI [28] | TGI [29] | TGI [30] | TGI [31] | TGI [32] | TGI [33] | TGI [34] | TGI [35] | TGI [36] | TGI [37] | TGI [38] | TGI [39] | TGI [40] | TGI [41] | TGI [42] | TGI [43] | TGI [44] | TGI [45] | TGI [46] | TGI [47] | TGI [48] | TGI [49] | TGI [50]
65.9 µM: TGI [5]
inactive: GI50 [1] > 100 µM | GI50 [2] > 100 µM | GI50 [3] 20.7 µM | GI50 [4] 9.42 µM | GI50 [5] 3.96 µM | GI50 [6] > 100 µM | GI50 [7] 17.7 µM | GI50 [8] 1.91 µM | GI50 [9] 12.1 µM | GI50 [10] 9.22 µM | GI50 [11] > 100 µM | GI50 [12] 3.28 µM | GI50 [13] 37.1 µM | GI50 [14] 5.65 µM | GI50 [15] 8.66 µM | GI50 [16] > 100 µM | GI50 [17] 74.2 µM | GI50 [18] 24.2 µM | GI50 [19] 3.04 µM | GI50 [20] 30.4 µM | GI50 [21] > 100 µM | GI50 [22] > 100 µM | GI50 [23] 3.58 µM | GI50 [24] 37.4 µM | GI50 [25] > 100 µM | GI50 [26] 7.16 µM | GI50 [27] > 100 µM | GI50 [28] > 100 µM | GI50 [29] > 100 µM | GI50 [30] > 100 µM | GI50 [31] 17.9 µM | GI50 [32] 6.67 µM | GI50 [33] 2.66 µM | GI50 [34] 7.32 µM | GI50 [35] 30.4 µM | GI50 [36] 28.6 µM | GI50 [37] > 100 µM | GI50 [38] 9.22 µM | GI50 [39] > 100 µM | GI50 [40] > 100 µM | GI50 [41] 72.4 µM | GI50 [42] 3.67 µM | GI50 [43] > 100 µM | GI50 [44] 6.97 µM | GI50 [45] 9.23 µM | GI50 [46] 1.27 µM | GI50 [47] 4.14 µM | GI50 [48] 56.7 µM | GI50 [49] 5.27 µM | GI50 [50] 6.96 µM

O=C1c2c(c3c4ccc(Br)cc4oc3c3[nH]c4ccccc4c23)C(=O)N1O
6.34 µM: TGI [26]
inactive: GI50 [6] 1.75 µM | GI50 [51] 1.92 µM | GI50 [10] 4.67 µM | GI50 [52] 1.07 µM | GI50 [11] 1.48 µM | GI50 [13] 1.74 µM | GI50 [17] 2.14 µM | GI50 [18] 1.45 µM | GI50 [24] 1.3 µM | GI50 [26] 2.1 µM | GI50 [28] 2.64 µM | GI50 [29] 1.52 µM | GI50 [35] 2.48 µM | GI50 [39] 1.12 µM | GI50 [55] 1.38 µM | GI50 [42] 2.84 µM | GI50 [43] 1.94 µM | GI50 [44] 2.34 µM | GI50 [46] 0.585 µM | GI50 [56] 3.11 µM | GI50 [47] 2.13 µM | GI50 [48] 2.34 µM | GI50 [57] 2.07 µM | GI50 [49] 1.11 µM | GI50 [50] 3.23 µM
active: GI50 [53] 0.0418 µM | GI50 [54] 0.308 µM
7.23 µM: TGI [44]
3.27 µM: TGI [11]
6.39 µM: TGI [6]
4.45 µM: TGI [13]
3.94 µM: TGI [29]
4.41 µM: TGI [46]
> 100 µM: TGI [51] | TGI [10] | TGI [52] | TGI [53] | TGI [17] | TGI [54] | TGI [18] | TGI [24] | TGI [28] | TGI [35] | TGI [39] | TGI [55] | TGI [42] | TGI [43] | TGI [56] | TGI [47] | TGI [48] | TGI [57] | TGI [49] | TGI [50]
